# In US20220409573A1, “Hippocampus Regeneration And Memory Recovery” (INNOBIOSCIENCE, LLC, priority 2021, published 2022):
# Entries after “also recorded” stand apart in the source; their conditions may differ.
# Columns and labels:
# [1] = system: dentate gyrus of the hippocampus of wild-type mice; experiment: Adult hippocampal neurogenesis (Ki67, DCX immunofluorescence); assay type: in vivo; details: for percentage of the granular cell layer covered by DCX staining / total number of Ki67+ cells in the SGZ: vs vehicle, 2 mg/kg
# Method: Animals. Two-month-old C57BC6 wild-type mice were treated and handled according to National Institutes of Health guidelines (NIH, […], Md.). The treatments were performed by intraperitoneal (ip) injection of 2.0 mg/kg ANDRO and wild-type control animals were injected only with saline solution as vehicle.
# Perfusion and postfixation. Mice were anesthetized (100 μg ketamine+10 μg xylazine in 10 μl saline/g), and then transcardially perfused with saline, followed by 4% paraformaldehyde (PFA) in 0.1M PBS. The brains were removed and incubated inPBS-4% PFA for 24 h at room temperature, dehydrated in 30% sucrose andkept at 4° C. until analysis.
# Tissue sectioning. After dehydration,each mouse brain was sectioned on a cryostate in 12 sets of serial coronal sections of 40 μm thickness (Leica Microsystems,Wetzlar, Germany) and collected in ice-cold-PBS in multiwell dishes.Each set contained 5-7 sections covering the entire length of the hippocampus.
# Inmunofluorescence for Ki67 and Doublecortin (DCX). Sections were washed with PBS 3 times for 5 min and then incubated in blocking solution (3% donkey serum, 3% BSA, 0.5% Triton X-100 in PBS) for 4 h. Then, tissues were incubated overenight with primary antibodies at 4° C. Primary antibodiesused were:rabbit anti-Ki67 (Abcam), rabbit anti-DCX (Cell Signaling Technology Inc., Beverly, Mass., USA), monoclonal anti-NeuN (Millipore, Billerica, Mass., USA). After washing 3 times with 0.5% Triton X-100 PBS, sections were incubated with Dy Light (Abcam) conjugated secondary antibodies for 2 h at room temperature. Slices were mounted on gelatin-coated slides with Fluoromont-G(Electron Microscopy Sciences, Hatfield, Pa., USA). For quantification, Ki67 positive cells were countedusing a fluorescence microscope (Olympus BX51, Tokyo, Japan). Cells were counted in all sections of one set (see tissue sectioning). Total cells counted in one set were multiplied by the total number of sets to obtain an estimation of the total number of Ki67+ cells in the complete hippocampus. For quantification of the % area covered by DCX, double labeling DCX/NeuN was carried. The total area of the granular cell layer was estimated as the area positive for NeuN staining and the percentage of this area covered by DCX staining was estimated. This image analysis was carried out using the ImageJ software (NIH, USA). Images shown were analyzed by confocal laser microscopy (Olympus FV 1000) and z-projections were generated with ImageJ software.
# GSK-3β = experiment: Immunoblot of GSK-3β phosphorylation and β-catenin in Wt hippocampal slices; assay type: cell-based, mice
# Method: Immunoblotting. The hippocampus and cortex of treated or control transgenic mice were dissected on ice and immediately processed has detailed previously (Toledo & Inestrosa 2010). Briefly, hippocampal and cortical tissues were homogenized in RIPA buffer (10 mM Tris-Cl, pH 7.4, EDTA 5 mM, 1% NP-40, 1% sodium deoxycholate, and 1% SDS) supplemented with a protease inhibitor mixture and phosphatase inhibitors (25 mMNaF, […] and 30 μM Na4P207) using a Potter homogenizator and then passed sequentially through different caliber syringes. Protein samples were centrifuged at 14000 rpm at 4° C. twice for 15 min. Protein concentrations were determined using the BCA Protein Assay Kit (Pierce). Samples were resolved by SDS-PAGE followed by immunoblotting on PVDF membranes. Western blot assays were carried out as previously described (Inestrosa et al 2013; Toledo & Inestrosa 2010).
# Slice Preparation and Electrophysiology. Hippocampal slices were prepared according to standard procedures previously described (Cerpa et al 2010; VarelaNallar et al 2010). Briefly, transverse slices (350 μm) from the dorsal hippocampus were cut under cold artificial cerebrospinal fluid (ACSF, in mM: 124 NaCl, […], 10 D-glucose, 2.69 KCl, 1.25 KH2PO4 2.5 CaCl2, 1.3 MgSO4, y 2.60 NaHPO4) using a V ibratome (Leica VT 1000s, Germany) and incubated in ACSF for 1 h at room temperature. In all experiments, 10 μM picrotoxin (PTX) was added to suppress inhibitory GABAA transmission (Cuitino et al 2010). Slices were transferred to an experimental chamber (2 ml), superfused (3 ml/min, at 20-22° C.) with gassed ACSF and visualized by trans-illumination with a binocular microscope (MSZ-10, Nikon, Melville, N.Y.). […] The paired pulse facilitation index was calculated by ((R2−R1)/R1), where R1 and R2 were the peak amplitudes of the first and second fEPSP respectively. […] Evoked postsynaptic responses were analyzed off-line, using an analysis software (pClampfit, Molecular Devices), which allowed visual detection of events, computing only those events that exceeded and arbitrary threshold.
# [2] = Side effects in treated animals; details: in vivo
# [3] = system: APPswe/PS-1 double transgenic mice; experiment: Classical Morris Water Maze test; assay type: in vivo; details: 12 month-old APPswe/PS-1 mice, 2.0 mg/kg IP three times per week, four weeks, vs Tg control
# [4] = system: Aβ aggregates in brain of APPswe/PS-1 mice; experiment: Thioflavine-S staining of amyloid plaques in treated APPswe/PS-1 mice; assay type: in vivo
# [5] = system: tau phosphorylation in the hippocampus of APPswe/PS-1 mice; experiment: Tau phosphorylation immunoblot (PHF-1, AT8) in treated APPswe/PS-1 mice; assay type: in vivo; details: hippocampus of 6 month-old APPswe/PS-1 mice, vs untreated
# [6] = 2-month-old mice, 2 mg/kg i.p. 3 times per week for 4 weeks
# [7] = Wt hippocampal slices, 10 μM ANDRO for 1 hr
# [8] = young APPswe/PS-1 mice, vs controls
smiles,measurement,setting,value
"C=C1CC[C@@H]2C(C)(CO)[C@H](O)CC[C@@]2(C)C1C/C=C1/C(=O)OC[C@H]1O (stereo in doubt) [ANDRO, 3-(2-(Decahydro-6-hydroxy-5-(hydroxymethyl)-5,8a-dimethyl-2-methylenenaphthyl)ethylidene)dihydro-4-hydroxyfuran-2(3H)-one]",density of immature neurons positive for DCX,[1]; [6],increase in the density of immature neurons
same,percentage of the granular cell layer covered by DCX staining,[1]; [6],significantly increased
same,total number of Ki67+ cells in the SGZ,[1]; [6],significantly increased the total number of Ki67^+ cells
same,total number of Ki67+ cells in the SGZ,"[1]; 2-month-old mice, 2 mg/kg i.p. 3 times per week for 4 weeks, listed as Ando",significant increase in the total number of Ki67^+ cell
same,percentage of the granular cell layer covered by DCX staining,"[1]; 2-month-old mice, 2 mg/kg i.p. 3 times per week for 4 weeks, listed as Andro",significant increase in the percentage of the granular cell layer area covered by DCX staining
same,morphology of DCX+ cells,[1]; compared to control mice,more complex morphology
same,levels of β-catenin,GSK-3β; Wt hippocampal slices incubated with ANDRO,increase in the levels of β-catenin
same,active form of GSK-3β (Tyr-216 phosphorylation),GSK-3β; [7],decrease of Tyr-216 phosphorylation; also recorded: reduction of the active form
same,inactive form of GSK-3β (Ser-9 phosphorylation),GSK-3β; [7],increment of Ser-9 phosphorylation; also recorded: increase in the levels of the inactive form
same,side effects in animals,[2],seems not to cause side effects in animals
same,escape latency,[3],significantly lower escape latency values
same,plaque size distribution (cumulative frequency),[4]; 7 month-old APPswe/PS-1 mice,shift in their distribution toward smaller plaque size
same,amyloid plaques stained with Th-S,"[4]; 7 month-old APPswe/PS-1 mice, cortex and hippocampus, vs untreated",reduction of amyloid plaques
same,amyloid deposit levels (amyloid burden area),"[4]; hippocampus or cortex, FIG. 3F (12 month-old mice per legend)",no change in amyloid deposit levels
same,immature plaques (type 1),[4]; [8],increase significantly
same,type 2a and 2c plaques in the total brain,[4]; [8],no significant differences
same,type 2b plaques,[4]; [8],significantly decreased
same,PHF-1- and AT8-positive tau levels,[5],reduction in PHF-1- and AT8-positive tau levels
